Assay results taken from the NIST ThermoML archive (doi:10.1016/j.fluid.2013.11.026).

Tests used:
[1] = refractive index (Na D-line) (dimensionless); conditions: 101.33 kPa, Liquid, Standard Abbe refractometry
[2] = 101.33 kPa, Liquid, Vibrating tube method
[3] = xn = mol fraction of the nth substance listed; conditions: 101 kPa, Liquid, Vibrating tube method
[4] = excess molar enthalpy (molar enthalpy of mixing); xn = mol fraction of the nth substance listed; conditions: 101 kPa, Liquid, Calvet calorimetry

CCCCOC=O [butyl methanoate]
Conditions	mass density, [2] [kg/m3]	refractive index, [1]
291.15 K	895.86	1.3904
298.15 K	888.47	1.3872

CCCCOC=O [butyl methanoate] + CCCCC
Conditions	excess molar enthalpy [kcal/mol]	mass density [kg/m3]
[3], 291.15 K, x1 = 0.0482	–	640.01
[3], 291.15 K, x1 = 0.1029	–	654.1
[3], 291.15 K, x1 = 0.1541	–	667.59
[3], 291.15 K, x1 = 0.2028	–	680.41
[3], 291.15 K, x1 = 0.2999	–	706.35
[3], 291.15 K, x1 = 0.3486	–	719.53
[3], 291.15 K, x1 = 0.453	–	747.88
[3], 291.15 K, x1 = 0.5029	–	761.43
[3], 291.15 K, x1 = 0.5974	–	786.96
[3], 291.15 K, x1 = 0.7	–	814.79
[3], 291.15 K, x1 = 0.8074	–	843.81
[3], 291.15 K, x1 = 0.8966	–	868.4
[3], 291.15 K, x1 = 0.9452	–	881.04
[3], 291.15 K, x1 = 1	–	895.86
[3], 298.15 K, x1 = 0.0584	–	635.57
[3], 298.15 K, x1 = 0.1147	–	650.09
[3], 298.15 K, x1 = 0.1936	–	670.91
[3], 298.15 K, x1 = 0.301	–	699.46
[3], 298.15 K, x1 = 0.343	–	710.8
[3], 298.15 K, x1 = 0.3886	–	723.15
[3], 298.15 K, x1 = 0.4521	–	740.45
[3], 298.15 K, x1 = 0.4958	–	752.3
[3], 298.15 K, x1 = 0.5442	–	765.49
[3], 298.15 K, x1 = 0.6477	–	793.55
[3], 298.15 K, x1 = 0.7529	–	822.18
[3], 298.15 K, x1 = 0.8993	–	861.53
[3], 298.15 K, x1 = 1	–	888.47
[4], 291.15 K, x1 = 0.0661	0.0774	–
[4], 291.15 K, x1 = 0.1254	0.1231	–
[4], 291.15 K, x1 = 0.1836	0.1594	–
[4], 291.15 K, x1 = 0.2321	0.1862	–
[4], 291.15 K, x1 = 0.2846	0.2041	–
[4], 291.15 K, x1 = 0.3351	0.2141	–
[4], 291.15 K, x1 = 0.3832	0.2196	–
[4], 291.15 K, x1 = 0.4276	0.2208	–
[4], 291.15 K, x1 = 0.4704	0.2187	–
[4], 291.15 K, x1 = 0.5095	0.2156	–
[4], 291.15 K, x1 = 0.5587	0.2084	–
[4], 291.15 K, x1 = 0.6121	0.1965	–
[4], 291.15 K, x1 = 0.6666	0.1781	–
[4], 291.15 K, x1 = 0.7272	0.1522	–
[4], 291.15 K, x1 = 0.799	0.118	–
[4], 291.15 K, x1 = 0.8702	0.076	–
[4], 291.15 K, x1 = 0.9372	0.0394	–
[4], 298.15 K, x1 = 0.0471	0.0748	–
[4], 298.15 K, x1 = 0.0941	0.13	–
[4], 298.15 K, x1 = 0.1606	0.1769	–
[4], 298.15 K, x1 = 0.2273	0.2079	–
[4], 298.15 K, x1 = 0.2903	0.228	–
[4], 298.15 K, x1 = 0.3523	0.238	–
[4], 298.15 K, x1 = 0.4102	0.24	–
[4], 298.15 K, x1 = 0.4611	0.2361	–
[4], 298.15 K, x1 = 0.5095	0.2292	–
[4], 298.15 K, x1 = 0.5166	0.2254	–
[4], 298.15 K, x1 = 0.5673	0.2163	–
[4], 298.15 K, x1 = 0.6237	0.202	–
[4], 298.15 K, x1 = 0.6862	0.1773	–
[4], 298.15 K, x1 = 0.754	0.1511	–
[4], 298.15 K, x1 = 0.8174	0.1202	–
[4], 298.15 K, x1 = 0.8803	0.0815	–
[4], 298.15 K, x1 = 0.9477	0.0402	–

CCOC=O [ethyl methanoate]
Conditions	mass density, [2] [kg/m3]	refractive index, [1]
291.15 K	923.4	1.3614
298.15 K	914.35	1.358

CCOC=O [ethyl methanoate] + CCCCC
Conditions	excess molar enthalpy [kcal/mol]	mass density [kg/m3]
[3], 291.15 K, x1 = 0.054	–	637.14
[3], 291.15 K, x1 = 0.063	–	638.38
[3], 291.15 K, x1 = 0.118	–	649.24
[3], 291.15 K, x1 = 0.161	–	658.03
[3], 291.15 K, x1 = 0.208	–	668.06
[3], 291.15 K, x1 = 0.305	–	689.98
[3], 291.15 K, x1 = 0.35	–	701.21
[3], 291.15 K, x1 = 0.405	–	715.14
[3], 291.15 K, x1 = 0.499	–	741.07
[3], 291.15 K, x1 = 0.595	–	769.91
[3], 291.15 K, x1 = 0.656	–	789.59
[3], 291.15 K, x1 = 0.751	–	822.65
[3], 291.15 K, x1 = 0.794	–	838.31
[3], 291.15 K, x1 = 0.85	–	859.54
[3], 291.15 K, x1 = 0.895	–	877.8
[3], 291.15 K, x1 = 0.941	–	896.94
[3], 291.15 K, x1 = 1	–	923.4
[3], 298.15 K, x1 = 0.058	–	631.15
[3], 298.15 K, x1 = 0.101	–	639.36
[3], 298.15 K, x1 = 0.104	–	639.54
[3], 298.15 K, x1 = 0.196	–	658.7
[3], 298.15 K, x1 = 0.252	–	670.7
[3], 298.15 K, x1 = 0.304	–	682.9
[3], 298.15 K, x1 = 0.405	–	708.3
[3], 298.15 K, x1 = 0.496	–	733.3
[3], 298.15 K, x1 = 0.609	–	766.9
[3], 298.15 K, x1 = 0.702	–	797.1
[3], 298.15 K, x1 = 0.801	–	832.2
[3], 298.15 K, x1 = 0.858	–	854.37
[3], 298.15 K, x1 = 0.909	–	875.28
[3], 298.15 K, x1 = 0.953	–	893.59
[3], 298.15 K, x1 = 1	–	914.35
[4], 291.15 K, x1 = 0.0907	0.109	–
[4], 291.15 K, x1 = 0.1625	0.1671	–
[4], 291.15 K, x1 = 0.2451	0.223	–
[4], 291.15 K, x1 = 0.3245	0.2663	–
[4], 291.15 K, x1 = 0.3983	0.2937	–
[4], 291.15 K, x1 = 0.4484	0.3043	–
[4], 291.15 K, x1 = 0.4961	0.3093	–
[4], 291.15 K, x1 = 0.536	0.3057	–
[4], 291.15 K, x1 = 0.5703	0.3	–
[4], 291.15 K, x1 = 0.605	0.2945	–
[4], 291.15 K, x1 = 0.6447	0.2818	–
[4], 291.15 K, x1 = 0.6893	0.2653	–
[4], 291.15 K, x1 = 0.7332	0.2445	–
[4], 291.15 K, x1 = 0.7743	0.2182	–
[4], 291.15 K, x1 = 0.8244	0.1855	–
[4], 291.15 K, x1 = 0.874	0.1465	–
[4], 291.15 K, x1 = 0.9259	0.0968	–
[4], 291.15 K, x1 = 0.9621	0.0454	–
[4], 298.15 K, x1 = 0.0714	0.106	–
[4], 298.15 K, x1 = 0.1517	0.1922	–
[4], 298.15 K, x1 = 0.2221	0.2512	–
[4], 298.15 K, x1 = 0.3085	0.299	–
[4], 298.15 K, x1 = 0.3849	0.3186	–
[4], 298.15 K, x1 = 0.445	0.3217	–
[4], 298.15 K, x1 = 0.4999	0.3236	–
[4], 298.15 K, x1 = 0.5411	0.32	–
[4], 298.15 K, x1 = 0.5726	0.3143	–
[4], 298.15 K, x1 = 0.6159	0.3069	–
[4], 298.15 K, x1 = 0.6668	0.2935	–
[4], 298.15 K, x1 = 0.7209	0.2717	–
[4], 298.15 K, x1 = 0.7702	0.2428	–
[4], 298.15 K, x1 = 0.8273	0.2065	–
[4], 298.15 K, x1 = 0.8813	0.16	–
[4], 298.15 K, x1 = 0.9227	0.104	–
[4], 298.15 K, x1 = 0.9662	0.049	–
